Reference: patent US20050064027A1, “Bioadhesive drug delivery system with enhanced gastric retention” (Spherics, Inc., priority 2001, published 2005)

Assay: Release kinetics from multi-drug macrospheres
Format: physicochemical
Conditions: salicylate in outer Eudragit RL 100 coating, acyclovir in core
Description: Fluidized bed spraying of 5% RL 100-coated 40% Acyclovir (ACV) loaded cores with 25% sodium salicylate w/w in a 10% RL 100-coating was then used to produce multi-drug macrospheres.
The starting material was the product of Example 2 (5% w/w RL 100 coated 40% ACV cores and overcoat with 10% RL 100 coating containing 25% w/w sodium salicylate). Overcoating with a 10% w/w coating of RL100 containing 25% w/w salicylate was used to produce a biphasic drug system. Sodium salicylate should be quickly delivered followed by acyclovir release. A 176.0 g lot of beads, 40% w/w Acyclovir (1.4-2.36 mm) was used as the cores for the coatings.
The release kinetics of the two drugs from the macrospheres of Example 6 were then determined. FIG. 6 is a graph of release of acyclovir (ACV) and salicylate as a function of percent total acyclovir loading, over time (in hours), from macrospheres wherein the salicylate is encapsulated in an outer Eudragit® RL 100 coating and the acyclovir is encapsulated in the core. The outer drug loading is used to achieve rapid release (three hours) as compared to more long term release of the core drug (24 hours).

Which “time of release of drug from multi-drug macrospheres” value (from here on “time of release of drug”) does the source give for `Nc1nc2c(ncn2COCCO)c(=O)[nH]1` [acyclovir] here?
Its value is 24 h.

For `O=C([O-])c1ccccc1O.[Na+]` [sodium salicylate], which “time of release of drug” value is on record?
The value was at most 3 h.

What about the “time of release of drug” value (listed as salicylate) of the same compound?
The value was “three”.
